In patent US11154543B2, “P38 MAP kinase inhibitors for wound healing” (The Schepens Eye Research Institute, Inc., priority 2015, dated 2021):
“Also recorded” adds a separate entry of the source.

Assays:
Format in all cases: cell-based
[1] = tested on: human corneal fibroblasts (HCF); experiment: αSMA western blot in human corneal fibroblasts ± TGF-β1; conditions: for αSMA protein expression in the presence of TGF-β1: inhibitor 24 h, then inhibitor + TGF-β1 24 h, Birb-796 10 μM, SB239063 20 μM, SB203580 5 uM, compared with HCF+TGF-β1; for αSMA expression (ratio of αSMA to β actin), TGF-β1-induced increase: serum-free, 10 uM inhibitor pre-treatment 24 h, then inhibitor + 2 ng/ml TGF-β1 24 h, compared with TGF-β1 alone (lane 2)
Experimental: FIG. 1 is an image of a representative western blot of human corneal fibroblasts cultured with 1) Basic Medium (BM: Eagles minimum essential medium) for 48 hours; 2) BM for 24 hours, then BM+TGF-β1 for 24 hours, 3) BM for 24 hours, then BM+p38 inhibitor for 24 hours, and 4) BM+p38 Inhibitor for 24 hours, then BM+p38 inhibitor+TGFβ1. Graph of SMA corrected per lane with internal control (β-actin).
FIG. 4 is a graph depicting analysis of αSMA protein expression in human corneal fibroblasts cultured with 1) Basic Medium (BM: Eagles minimum essential medium) for 48 hours; 2) BM for 24 hours, then BM+TGF-β1 for 24 hours, 3) BM for 24 hours, then BM+Birb-796 for 24 hours, 4) BM+Birb-796 for 24 hours, then BM+Birb-796+TGF-β1 for 24 hours; 5) BM for 24 hours, then BM+SB239063 for 24 hours; 6) BM+SB239063 for 24 hours, then BM+SB239063+TGF-β1 for 24 hours; 7) BM for 24 hours, then BM+SB203580 for 24 hours; and 8) BM+SB203580 for 24 hours, then BM+SB203580+TGF-β1 for 24 hours. Graph of SMA corrected per lane with internal control (β-actin).
The protocol for alpha smooth muscle actin (αSMA) testing in human corneal fibroblasts (HCF) is shown below using treatment with/without p38 inhibitor (SB202190) as an example treatment. • 1. Grow HCF (human corneal fibroblast cells) in 100 mm dishes (×12). • 2. When cells get 60-70% confluent, rinse with PBS for 3 times. Then: • a. Put serum-free EMEM to starve cells overnight. (9×) • b. Put serum-free EMEM with 10 uM of p38 inhibitor (SB202190) overnight to pre-treat cells. (3×) • 3. Next day, treat cells as follows and incubate overnight: • c. 10 ml of serum-free EMEM (3×) • d. 10 ml of serum-free EMEM with 2 ng/ml of TGF-β1. (3×) • e. 10 ml of serum-free EMEM with 10 uM of p38 inhibitor (SB202190). (3×) • f. 10 ml of serum-free EMEM with 10 uM of p38 inhibitor (SB202190) and 2 ng/ml of TGF-β1 into pre-treated dishes (2b). (3×) • 4. Harvest cells by trypsinization and store cells at −80° C.
(§1) Samples were lysed with RIPA buffer and western blot analysis was performed, as previously described (Chung E H, IOVS 1999; 40:1952-8) with minor changes. Membranes with separated proteins were probed with anti-αSMA (alpha-smooth muscle actin) and β-Actin (beta-actin) according to the protocol in Example 1. After reaction with corresponding DyLight secondary antibodies, membranes were scanned on Odyssey and software was used to measure the bands (ImageJ, v. 1.5), and the data was analyzed and plotted (Prism 5.0; GraphPad software).
The above protocol was utilized to assay αSMA expression in human corneal and skin fibroblasts under different culture conditions, including in the presence of p38 inhibitor. […] In FIG. 3, high levels of αSMA indicate that most dermal fibroblasts in culture were already myofibroblast cells (lane 1).
Three additional p38 inhibitors shown in Table 1 below were test in HCF. […] The concentrations of these three inhibitors were not optimized and it is believed that with higher concentration of these p38 inhibitors, αSMA expression will be decreased to a greater extent.

[2] = tested on: human corneal 3-D constructs (HCF and their self-assembled matrix); experiment: αSMA western blot in human corneal 3-D stromal constructs
Experimental: FIG. 6 includes a bar graph and a western blot showing analysis of αSMA expression in human corneal 3-D constructs. Human Corneal Fibroblasts (HCF) were cultured as follows: 1) RM (Regular Medium: Eagle's minimum essential medium+10% FBS for 9 days); 2) T1 (RM for 24 hours, then RM+2 ng/ml of TGF-beta (T1) for 8 days); 3) p38 inhibitor (p38inh) (RM for 24 hours, then RM+10 μM of p38 inhibitor [SB202190] for 8 days); and 4) T1+p38inh (RM+SB202190 for 24 hours, then RM+SB202190+TGF-1 for 8 days). Graph of αSMA corrected per lane with internal control (β-actin). […] The western blot is shown in the upper right corner.
Data shown in previous figures were generated using cells in culture. […] The system a cell-based 3-D corneal stromal construct containing human corneal fibroblasts (HCF) and their self-assembled matrix. This art-recognized model mimics stromal development and wound healing. To test this, we cultured human corneal fibroblasts (HCF) in 0.5 mM Vitamin C±2 ng/ml TGF-β1 (T1) and/or 10 μM p38 inhibitor #1 (SB202190) for 9 days. The media was changed every day. After 9 days, the samples were harvested and analyzed for αSMA by western blot (WB). […] The data also indicate that p38 inhibitor(s) inhibit scar formation during corneal wound healing.

[3] = tested on: human corneal myofibroblasts (T1-treated HCF); experiment: Reversal of αSMA in TGF-β1-differentiated human corneal myofibroblasts (western blot); conditions: HCF pre-treated 2 ng/ml T1 for 3 days
Experimental: FIGS. 7A and 7B show analysis of αSMA expression in HCF cultured as follows: 1) HCF: RM, 2) T1: RM+T1 (for 3 days), or 3) RM+T1 for 3 days, then RM±p38inh for 1 (D1), 2 (D2), or 3 days (D3). (A) Representative western blot.
In this experiment, we examined if p38 inhibitor could not only reduce, but reverse αSMA levels, thus converting myofibroblasts back to their fibroblastic phenotype. To do this, HCF were treated with 2 ng/ml of T1 for 3 days. This allowed for the majority of the HCF to differentiate to their myofibroblastic phenotype with high levels of αSMA expression. After rinsing with PBS three times, these T1-treated cells were split into two groups: 1) regular medium (RM) and 2) p38 inhibitor (p38inh) medium. Media was changed every day. Cells were harvested after 1, 2, or 3 days for αSMA analysis by WB. […] The T1 cells then were split into two groups, RM or p38inh, and the appropriate medium was applied. […] On day 3 (D3), αSMA levels in both media samples decreased.

[4] = tested on: human corneal fibroblasts; experiment: Indirect immunofluorescence of SMA in human corneal fibroblasts; conditions: HCF; p38 inhibitor 24 h, then p38 inhibitor + TGF-β1; compared with TGF-β1 alone (FIG. 2B)
Excerpt: FIGS. 2A-2D are representative indirect immunofluorescent images of human corneal fibroblasts. […] Grey stripes staining=SMA and grey dots staining=DAPI, a nuclear counterstain. […] This is in agreement with the western blot in FIG. 1.

human dermal fibroblasts = experiment: αSMA western blot in human dermal fibroblasts ± TGF-β1; conditions: BM+10% FBS, p38 inhibitor 24 h pre-treatment ± TGF-β1, compared with normal culture (lane 1) and T1 (lane 2)
Experimental: FIG. 3 is an image of a representative western blot of human dermal fibroblasts cultured with 1) Basic Medium (BM: Eagles minimum essential medium)+10% FBS for 48 hours; 2) BM+10% FBS for 24 hours, then BM+10% FBS+TGFβ1 for 24 hours, 3) BM+10% FBS for 24 hours, then BM+10% FBS+p38 inhibitor for 24 hours, and 4) BM+10% FBS+p38 Inhibitor for 24 hours, then BM+10% FBS+p38 inhibitor+TGF-β1. Graph of SMA corrected per lane with internal control (β-actin).
The protocol for alpha smooth muscle actin (αSMA) testing in human corneal fibroblasts (HCF) is shown below using treatment with/without p38 inhibitor (SB202190) as an example treatment. • 1. Grow HCF (human corneal fibroblast cells) in 100 mm dishes (×12). • 2. When cells get 60-70% confluent, rinse with PBS for 3 times. Then: • a. Put serum-free EMEM to starve cells overnight. (9×) • b. Put serum-free EMEM with 10 uM of p38 inhibitor (SB202190) overnight to pre-treat cells. (3×) • 3. Next day, treat cells as follows and incubate overnight: • c. […]
as §1, with “Membranes with separated proteins were probed with anti-αSMA (alpha-smooth muscle actin) and β-Actin (beta-actin) according to the protocol in Example 1.” left out, “software). […]” for “software).”

Cc1ccc(-n2nc(C(C)(C)C)cc2NC(=O)Nc2ccc(OCCN3CCOCC3)c3ccccc23)cc1 [Birb-796, Doramapimod]
αSMA protein expression in the presence of TGF-β1 [1]: significantly different

Oc1ccc(-c2nc(-c3ccc(F)cc3)c(-c3ccncc3)[nH]2)cc1 [SB202190, 4-(4-Fluorophenyl)-2-(4-hydroxyphenyl)-5-(4-pyridyl)1H-imidazole]
αSMA expression, T1 + p38 inhibitor versus control ([2]; 10 μM inhibitor + 2 ng/ml TGF-β1, 9 days (lane 4 vs lane 1)): decreased as compared with control
αSMA expression, T1 + p38 inhibitor versus T1 ([2]; 10 μM inhibitor + 2 ng/ml TGF-β1, 9 days (lane 4 vs lane 2), p<0.001): significantly lower than T1; also recorded: significantly different
αSMA expression, p38 inhibitor alone ([2]; 10 μM inhibitor, 9 days (lane 3), compared with control, p<0.05): significantly decreased; also recorded: significantly lower than others
αSMA expression (ratio of αSMA to β actin), TGF-β1-induced increase [1]: inhibits the TGF-β1 induced increase in expression of αSMA
αSMA expression (ratio of αSMA to β actin), TGF-β1-induced increase ([1]; listed as p38 inhibitor): significantly different
αSMA levels on day 1 (D1) ([3]; then p38inh medium 1 day, compared with T1 control): continued to increase
αSMA levels on day 2 (D2) ([3]; then p38inh medium 2 days, compared with RM sample, p<0.05): significantly lower than the RM sample; also recorded: decreased significantly
αSMA levels on day 3 (D3) ([3]; then p38inh medium 3 days, compared with RM sample): continued to be lower than that in the RM sample
αSMA staining / number of SMA-positive cells [4]: mitigated
αSMA expression (corrected with β-actin) (human dermal fibroblasts): significantly decreased
αSMA expression (corrected with β-actin) (human dermal fibroblasts; listed as p38 inhibitor): significantly different

COc1nccc(-c2c(-c3ccc(F)cc3)ncn2C2CCC(O)CC2)n1 (stereo not drawn) [SB239063, trans-1-(4-Hydroxycyclohexyl)-4-(4-fluorophenyl)-5-(2-methoxypyridimidin-4-yl)imidazole]
αSMA protein expression in the presence of TGF-β1 [1]: significantly different

C[S+]([O-])c1ccc(-c2nc(-c3ccc(F)cc3)c(-c3ccncc3)[nH]2)cc1 (centres unmarked) [SB203580, 4-(4′-Fluorophenyl)-2-(4′-methylsulfinylphenyl)-5-(4′-pyridyl)-imidazole]
αSMA protein expression in the presence of TGF-β1 [1]: significantly different
